Three substances from US20230233305A1, “METHOD OF AMELIORATING OR TREATING INFLAMMATORY IN AN ORAL CAVITY” (priority 2022, published 2023) can be followed below.

The subject of one assay is VDR. Description: Immunohistochemistry of inflamed oral mucosal tissue with anti-VDR. In kind it is in vivo, domestic cats. The note with it: after 6-week treatment vs 0th week. As to the method: (§1) The procedure of immunohistochemistry is briefly described as following. All steps are performed on the Leica Bond Max automatic immunohistochemistry machine. The aforementioned inflamed oral mucosal tissues fixed with formalin and embedded in paraffin is sectioned with a thickness of 5 μm, and placed on a glass slide suitable for performing immunohistochemistry. The tissue section is placed in a 50° C. oven for 15 minutes and is dewaxed twice with Bond Dewax Solution for 5 minutes. The tissue section is washed three times with Tris buffered saline (TBS, pH 7.6) for 5 minutes, and then treated with Bond Leica Alcohol for 5 minutes for tissue rehydration. After being washed three times with TBS for 5 minutes, the tissue section is heated at 100° C. with Bond Citrate buffer (pH 6), and the tissue used for detecting VDR is heated for 20 minutes, and the tissue used for detecting LC3B is heated for 40 minutes. After being washed three times with TBS for 5 minutes, the tissue section is reacted with Bond Peroxide solution for 8 minutes. After being washed three times with TBS for 5 minutes, the tissue section is reacted with Bond Protein blocking solution for 10 minutes. After being washed three times with TBS for 5 minutes, the tissue section is reacted with the primary antibodies for 30 minutes at room temperature, wherein the dilution ratio of anti-VDR antibody (ab3508) is 500×, and the dilution ratio of anti-LC3B antibody (ab239416) is 50×. After being washed three times with TBS for 5 minutes, the tissue section is reacted with Bond Post primary solution containing rabbit anti-mouse IgG antibody for 10 minutes. After being washed three times with TBS for 5 minutes, the tissue section is reacted with Bond Post primary solution containing Poly-HPR IgG for 10 minutes. After being washed three times with TBS for 5 minutes, the tissue section is reacted twice with Bond DAB solution for 3 minutes for coloration. […] The staining intensity and frequency of oral mucosal epithelial cells in the tissues are evaluated by the method provided by Shackelford. […]

Assay [1] deals with domestic cats with feline chronic gingivostomatitis (FCGS). Description: Stomatitis disease activity index (SDAI) after mucogingival replacement surgery. It is filed as in vivo. The text has this: The stomatitis disease activity index is to score the condition of the subject by the following three aspects respectively and then add three scores to get the index: (1) owner evaluation (total score 0-3): the quality of life including appetite, activity level, grooming behavior, and perceived comfort would be scored by the owner, with a scale of 0-3, 0 is the best, and 3 is the worst; (2) weight (total score 0-3): the change in weight compared to most recent visit, with a scale of 0-3, 0 is an increase of more than 0.5 kg, 1 is an increase of 0.25-0.5 kg, 2 is an increase of 0-0.25 kg, and 3 is weight loss; (3) inflammatory symptoms (total score 0-24): inflammation in 8 different areas of the oral cavity, including maxillary buccal mucosa, mandibular buccal mucosa, maxillary attached gingiva, mandibular attached gingiva, lateral to palatoglossal folds, molar salivary gland, oropharynx, and sublingual area, with scale of 0-3, 0 is none, 1 is mild, 2 is moderate, and 3 is severe.

Another assay relates to LC3B. Briefly: Immunohistochemistry of inflamed oral mucosal tissue with anti-LC3B. In kind it is in vivo, domestic cats. The note with it: after 6-week treatment vs 0th week. On the procedure:
as §1

Where [2] appears, read: 0th week, vitamin D 200 ng/kg oral + 5 mg/kg deoxytetracycline (control: deoxytetracycline only), 5 mg/kg.
The mark [3] stands for this setting: 6th week, vitamin D 200 ng/kg oral + 5 mg/kg deoxytetracycline (control: deoxytetracycline only), 5 mg/kg.

For the substance vitamin D [water-soluble vitamin D], in the assay on VDR, the “VDR in the inflamed oral mucosal tissue (IHC intensity and frequency)” value (“VDR in the inflamed oral mucosal tissue” for short) is reported as “remains unchanged”. The “stomatitis disease activity index (SDAI) score” value in assay [1] (setting [2]) was 17.67; in assay [1] (setting [3]), 13.92. Also, in the assay on LC3B, the “LC3B in the inflamed oral mucosal tissue (IHC intensity and frequency)” value (“LC3B in the inflamed oral mucosal tissue” below) is “increases”.
Consider deoxytetracycline [control group (A)], for which the “VDR in the inflamed oral mucosal tissue” value with VDR was “decreases”. The “stomatitis disease activity index (SDAI) score” value came to 11.44 in assay [1] (0th week, vitamin D 200 ng/kg oral + 5 mg/kg deoxytetracycline (control: deoxytetracycline only)); 9.19 in assay [1] (2nd week, 5 mg/kg deoxytetracycline); 11.22 in assay [1] (6th week, vitamin D 200 ng/kg oral + 5 mg/kg deoxytetracycline (control: deoxytetracycline only)). For the same substance, the “LC3B in the inflamed oral mucosal tissue” value in the assay with LC3B is on record as “basically maintains a constant value”.
For vitamin D [fat-soluble vitamin D], the “VDR in the inflamed oral mucosal tissue” value with VDR was “increases”. Further, the entries for the “stomatitis disease activity index (SDAI) score” value in assay [1] (setting [2]) and in assay [1] (setting [3]) were 13 and 11.5, respectively. The “LC3B in the inflamed oral mucosal tissue” value with LC3B is listed as “increases”.
